Assay results reported in the METLIN SMRT retention time set (Domingo-Almenara et al. 2019).

Experiment: gradient 5% acetonitrile 3 min, to 50% in 2 min, to 85% in 15 min, held 3 min, 100 µL/min
Conditions: column: Zorbax Extend-C18 2.1 x 50 mm; eluents: water / acetonitrile, 0.1% formic acid
In short: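 Data were gathered over 3 months by HPLC coupled to a quadrupole time-of-flight mass spectrometer, operated in positive and negative ionization mode. Mixtures of ~100 pure standards ran on a Zorbax Extend-C18 column (2.1 × 50 mm, 1.8 μm) at 100 μL/min, with water and acetonitrile each containing 0.1% formic acid and dead and dwell volumes of 40 μL and 900 μL. Retention time was read from adduct peaks picked by computer and checked manually.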

## CCc1ccc2[nH]c3c(c(=O)c2c1)CN(CC(=O)NCc1ccccc1Cl)CC3
  RP-LC retention time: 633 s

## Cc1c(F)cccc1NC(=O)N1CCC(c2cc(=O)n3nccc3n2C)CC1
  RP-LC retention time: 690 s

## c1ccc(CN2CCC3(CCc4ccccc43)CC2)cc1
  RP-LC retention time: 784 s

## O=C(Nc1cnn(-c2ncc(N3CCCC3)cn2)c1)c1ccc(C(F)(F)F)cc1
  RP-LC retention time: 941 s

## CC(C)Cn1c(=O)c2ccccc2n(Cc2nc(-c3ccc(Cl)cc3)no2)c1=O
  RP-LC retention time: 1240 s

## O=S(=O)(c1cc(F)ccc1F)N1CCc2nc(-c3ccc(F)cc3)ncc2C1
  RP-LC retention time: 1100 s

## OC(COCCOc1c(F)cc(Br)cc1F)CSc1ccccn1 (stereo unspecified)
  RP-LC retention time: 934 s

## COc1ccccc1-c1noc(C2CCCN2C(=O)Nc2ccc(F)cc2)n1 (stereo unspecified)
  RP-LC retention time: 842 s

## Cc1ccc(C(=O)Nc2ccc(N3CCN(c4ccccc4)C3=O)nc2)s1
  RP-LC retention time: 893 s

## CCc1cccc(NC(=O)Cn2cc(C(=O)N3CCCC3)c(=O)c3ccc(C)nc32)c1
  RP-LC retention time: 753 s

## CC1CS(=O)(=O)N(c2ccc(C(=O)N3CCN(c4ccccn4)CC3)c(Cl)c2)C1=O (stereo unspecified)
  RP-LC retention time: 576 s

## CCNC(=O)C1CCCN(c2nc3ncn(CC(=O)NCc4ccc(Cl)cc4)c(=O)c3s2)C1 (stereo unspecified)
  RP-LC retention time: 696 s

## CC1(C)CC(=O)c2cn(-c3ccc(F)cc3)c(=O)c(C(=O)NC3CC3)c2C1
  RP-LC retention time: 814 s

## CC(NC(=O)C1CCN(C(=O)c2ncn3c2COC(c2ccc(F)cc2)C3)CC1)c1ccc(F)cc1 (stereo unspecified)
  RP-LC retention time: 790 s

## O=[N+]([O-])c1ccc(-c2nc(N3CCCCCC3)c3ccccc3n2)cc1
  RP-LC retention time: 820 s

## Cc1nnc(-c2ccc(S(=O)(=O)NCc3ccco3)o2)o1
  RP-LC retention time: 722 s

## COCCN1CCC2(CC1)CN(Cc1ccc(F)cc1Cl)Cc1ccccc1O2
  RP-LC retention time: 790 s

## COc1ccc(-c2nc(C3CC(=O)N(c4ccc(OC)c(OC)c4)C3)no2)cc1OC (stereo unspecified)
  RP-LC retention time: 787 s

## CCCS(=O)(=O)NCc1ccc2c(c1)CCN2C(=O)CC
  RP-LC retention time: 686 s

## O=C1CCCc2cc(S(=O)(=O)N3CCCC(C(=O)N4CCN(c5ccccc5)CC4)C3)ccc2N1 (stereo unspecified)
  RP-LC retention time: 788 s

## O=C(CN1CC(c2nc(-c3cccs3)no2)C1)N1CCc2ccccc21
  RP-LC retention time: 605 s

## CCOC(=O)c1ccc(NC(=O)c2cc3c(=O)n(C)c4ccccc4n3n2)cc1
  RP-LC retention time: 981 s

## COc1ccc(NC(=O)C2=Cc3ccccc3OC=C2)c(OC)c1
  RP-LC retention time: 1030 s

## c1ccc(-c2nc(C3CCOCC3)no2)c(OC2CCN(C3CCCC3)C2)c1 (stereo unspecified)
  RP-LC retention time: 661 s

## C=CCc1cccc(/C=N/NC(=O)C[NH+]2CCN(Cc3ccccc3)CC2)c1[O-]
  RP-LC retention time: 783 s

## COc1ccc(-c2noc(CN3N=NC4C(=O)N(c5cccc(Cl)c5)C(=O)C43)n2)c(OC)c1 (stereo unspecified)
  RP-LC retention time: 912 s

## Cc1nn(CC(=O)N2CCCCC2)c(=O)c2c(-n3cccc3)n(-c3ccc(F)cc3)nc12
  RP-LC retention time: 923 s

## Clc1ccc(-c2nc(N3CCCCC3)c3ccccc3n2)cc1
  RP-LC retention time: 818 s

## Cc1oc2ccn(Cc3cccc(F)c3)c(=O)c2c1C(=O)NCc1cc(F)cc(F)c1
  RP-LC retention time: 1130 s

## O=C(C1=CN(c2ccc3c(c2)OCO3)c2cc(F)ccc2S1(=O)=O)N1CCCC1
  RP-LC retention time: 796 s

## Cn1cc(-c2ccccc2)cc1C(=O)NCc1ccc(N2CCOCC2)cc1
  RP-LC retention time: 892 s

## CCc1cccc(NC(=O)Cn2nc3cc(C)nc(Nc4ccc(C)cc4)n3c2=O)c1
  RP-LC retention time: 1140 s

## COc1ccc(C)cc1Nc1ncnc(N)c1[N+](=O)[O-]
  RP-LC retention time: 780 s

## COC(=O)c1[nH]c2c(c1C)C(=O)CC(c1cccc(OC)c1)C2 (stereo unspecified)
  RP-LC retention time: 838 s

## CCCn1cc2c3c(cccc31)CN(C(=O)Nc1cccc(C)c1)CC2
  RP-LC retention time: 1070 s

## Cc1ccc(-c2cc3c(=O)n(Cc4noc(CN5CCCCCC5)n4)ccn3n2)c(C)c1
  RP-LC retention time: 724 s

## CN1C(=O)COc2ccc(-c3csc(NC(=O)c4cccnc4)n3)cc21
  RP-LC retention time: 733 s

## CCC(=O)Nc1ccc(CCc2nc3ccc(C(=O)NCc4ccc(SC)cc4)cc3[nH]2)cc1
  RP-LC retention time: 683 s

## O=c1ccc(-c2cccs2)nn1CCNS(=O)(=O)c1ccc(F)c(Cl)c1
  RP-LC retention time: 796 s

## CN1C(=O)c2cc(C(=O)NCCc3ccccc3)nn2CC1(C)C(=O)NCc1ccccc1 (stereo unspecified)
  RP-LC retention time: 769 s

## O=C(NCc1ccco1)c1cc(C2CC2)on1
  RP-LC retention time: 717 s

## COc1ccc(OC)c(CNC(=O)C2CCN(S(=O)(=O)c3cn(C)cn3)CC2)c1
  RP-LC retention time: 663 s

## COc1ccc(-c2nc(C3CC(=O)N(c4ccc(F)cc4)C3)no2)cc1OC (stereo unspecified)
  RP-LC retention time: 884 s

## CNC(=O)C1Cc2ccccc2N1S(=O)(=O)c1cccc(C(F)(F)F)c1 (stereo unspecified)
  RP-LC retention time: 802 s

## Cc1ccc(Nc2nc(C(=O)NCc3ccco3)nc3ccccc23)cc1
  RP-LC retention time: 779 s

## CCN(CC)C(=O)c1ccc2c(c1)N(CC(=O)NCc1ccc3c(c1)OCO3)C(=O)C1CCCCN21 (stereo unspecified)
  RP-LC retention time: 826 s

## CCc1nnc(-c2cccc(OCC(=O)N3CCCc4ccccc43)c2)o1
  RP-LC retention time: 814 s

## COC(=O)c1ccc(C(=O)Nc2ccncc2NC(=O)c2ccc(C(=O)OC)cc2)cc1
  RP-LC retention time: 646 s

## CCC(C)n1c(=O)c2ccccc2n(Cc2nc(-c3ccc(OC)c(OC)c3)no2)c1=O (stereo unspecified)
  RP-LC retention time: 1060 s

## COc1ccccc1Cc1nc(-c2ccccc2)nn(C2OC(COC(C)=O)C(OC(C)=O)C(OC(C)=O)C2OC(C)=O)c1=S (stereo unspecified)
  RP-LC retention time: 1190 s

## COCC(=O)N1CCCC(c2nc(CNC(=O)C3CCC3)cs2)C1 (stereo unspecified)
  RP-LC retention time: 597 s

## COc1cc(OC)c(NC(=O)N2CCc3nc(-c4ccccc4)ncc3C2)cc1Cl
  RP-LC retention time: 975 s

## O=C(C1CCC1)N1CCc2sc(S(=O)(=O)Nc3ccc(Cl)cc3)cc2C1
  RP-LC retention time: 929 s

## CCN1CCN(C(=O)C2CCCN(S(=O)(=O)c3cc(-c4noc(C)n4)cs3)C2)CC1 (stereo unspecified)
  RP-LC retention time: 612 s

## Cc1cc(C)cc(Oc2nccn3c(=O)n(CC(=O)Nc4cc(F)ccc4F)nc23)c1
  RP-LC retention time: 950 s

## CCc1nnc(-c2ccc3ccn(CC(=O)NCCc4cccs4)c3c2)o1
  RP-LC retention time: 781 s

## Cc1cc(=O)n(CC(=O)NCc2ccccc2)c(N2CCCC2)n1
  RP-LC retention time: 606 s

## COCCN(CC(=O)N1CCc2sccc2C1COc1ccccc1OC)C(C)=O (stereo unspecified)
  RP-LC retention time: 757 s

## Cc1ccc(-c2nc(-c3ccc4c(c3)ncn4CCN3CCCCC3)no2)s1
  RP-LC retention time: 646 s

## CN(C(=O)Cc1ccsc1)C1CCc2nn(C)c(=O)n2CC1 (stereo unspecified)
  RP-LC retention time: 600 s

## Cc1cc(-c2nnc(-c3ccco3)o2)c(C)n1CC(=O)NCc1ccc(F)cc1
  RP-LC retention time: 849 s

## COc1ccc(NS(=O)(=O)c2cc3c(s2)CCN(C(=O)C2CC2)C3)cc1Cl
  RP-LC retention time: 826 s

## Fc1cccc(-c2noc(-c3cc(N4CCN(c5ccccn5)CC4)nc4ccccc34)n2)c1
  RP-LC retention time: 962 s

## COCCCNC(=O)CCCn1c2ccccc2c2cnn(C)c(=O)c21
  RP-LC retention time: 688 s

## COc1ccc(C(=O)Nc2nc(-c3ccc4c(c3)NC(=O)C(C)O4)c(C)s2)cc1OC (stereo unspecified)
  RP-LC retention time: 867 s

## O=c1c(NCc2ccccc2Cl)nc2ccncc2n1Cc1ccccc1
  RP-LC retention time: 747 s

## COc1ccc(Cl)cc1NC(=O)Cn1ncc2c(N3CCN(c4ccccn4)CC3)ncnc21
  RP-LC retention time: 642 s

## CCOc1ccccc1C(=O)n1nc(C)c(S(=O)(=O)N2CCC(C)CC2)c1C
  RP-LC retention time: 1230 s

## COc1ccc(-n2nnc(-c3nsc(Nc4cccc(Cl)c4)n3)c2C)cc1
  RP-LC retention time: 1080 s

## CCCNC(=O)C1CCN(c2cc(SCC(=O)Nc3cccc(CC)c3)ncn2)CC1
  RP-LC retention time: 810 s

## Cc1nn(-c2ccc(F)cc2)c2c1c(=O)c(C(=O)NCc1cccs1)cn2C
  RP-LC retention time: 808 s

## O=C(Nc1ccc(Cl)cc1)C1CCCN(c2ncnc3c2nc2n3CCCCC2)C1 (stereo unspecified)
  RP-LC retention time: 877 s

## O=c1cc(CO)oc(C(Nc2ccccn2)c2cccc(F)c2)c1O (stereo unspecified)
  RP-LC retention time: 542 s

## O=C(O)c1nnn(-c2cccc(F)c2)c1-c1ccncc1
  RP-LC retention time: 616 s

## Cc1nn(-c2ccc(F)cc2)c2nc(N3CCCC(C(=O)NC4CCCCCC4)C3)sc12 (stereo unspecified)
  RP-LC retention time: 1240 s

## CCOC(=O)CSc1nnc(-c2cccnc2)n1-c1ccccc1
  RP-LC retention time: 654 s

## COc1ccc(NC(=O)CN2C(=O)NC3(CCC(C)CC3)C2=O)c(OC)c1 (stereo unspecified)
  RP-LC retention time: 827 s

## COc1ccc(-c2cn3c(CC(=O)Nc4ccc(C)cn4)csc3n2)cc1OC
  RP-LC retention time: 653 s

## CCOC(=O)c1c(C)oc2nc(C)nc(N3CCN(c4ccccc4F)CC3)c12
  RP-LC retention time: 1210 s

## Cc1ccc2c(c1)N(C(=O)CCC(=O)NCCCN1CCN(C3CCCCC3)CC1)CC(C)O2 (stereo unspecified)
  RP-LC retention time: 603 s

## O=C(COc1ccc(Cl)cc1)Nc1ccc(-c2cn3c(n2)SCC3)cc1
  RP-LC retention time: 627 s

## CCCn1ccc2sc(C)c(C(=O)NCCC(C)C)c2c1=O
  RP-LC retention time: 901 s

## Cc1ccc(-c2noc(Cn3ccn(-c4ccccc4C)c(=O)c3=O)n2)cc1
  RP-LC retention time: 680 s

## CC1=C(C(=O)Nc2cccc(C(=O)N3CCN(c4ccccn4)CC3)c2)SCCO1
  RP-LC retention time: 612 s

## CCOc1ccc(-c2csc(NC(=O)CCCc3nc(-c4ccccc4Cl)no3)n2)cc1
  RP-LC retention time: 1160 s

## Cc1nc(-c2nnn(-c3ccccc3)c2C)sc1C(=O)NCCc1cccs1
  RP-LC retention time: 936 s
